Values joined by “and” are separate entries in the source; they are usually repeats but may differ in a detail not shown here. Identical values can stand only once. “Also recorded” adds a separate entry of the source. Like-named read-outs stand apart in the source and are kept apart here.
Assays:
lactoperoxidase = lactoperoxidase oxidation (mediated by peroxide); type: biochemical; details: physiological conditions (neutral pH)
[1] = tested on: incision-induced hyperalgesia; assay: mouse incisional model (mimicking the Brennan protocol); type: in vivo; details: 10 mg/kg IP QD, Days 1 and 3 after incision
Description: In a mouse incisional model (mimicking the Brennan protocol), animals were baselined for mechanical thresholds prior to incision and then given a daily dose of Compound 1 (10 mg/kg IP QD) or vehicle for 7 days.

[2] = tested on: incision-induced hyperalgesia; assay: mouse model of severe incision; type: in vivo; details: 10 mg/kg IP daily for 15 days; Days 1, 3, 6, 8, 10, 13, 15 and 21
Excerpt: Two incisional pain models were used to assess Compound 1 effects on hyperalgesia. The first model is referred to as the Brennan model in which, under anesthesia, a 1 cm longitudinal incision to the skin and underlying fascia of a rat hindpaw is made. The second is a variation but is a more invasive procedure in which the skin and muscle are spread apart using forceps which creates a longer-lasting hypersensitivity.
In a mouse model of severe incision (tissue and muscle spread with forceps), animals were at baseline for mechanical thresholds prior to incision and then given a daily dose of Compound 1 (10 mg/kg IP) or vehicle for 15 days.

[3] = rat 7 day repeat IV dose study; type: in vivo; details: 7 day IV
Description: In a third study, SD rats (3/sex/group) were administered Compound 1 IV via the tail vein for 7 days at doses of 0, 75 or 150 mg/kg/day. The vehicle was 15% dimethylacetamide, 85% phosphate buffered saline. Blood was collected from all surviving animals for toxicokinetic analysis approximately 2 hours after the last dose on Day 7.

[4] = rat brain distribution study; type: in vivo
Excerpt: A rat brain distribution study performed in order to determine standard pharmacokinetic parameters and to assess the brain penetration properties of Compound 1 administered orally and intravenously. […] The compound distributed readily in tissues with a steady-state volume of distribution of 1.7 L/kg.

stability in hepatocytes = type: in vitro ADME
Excerpt: (§1) Further metabolism work in additional species will be undertaken.

stability in plasma = type: in vitro ADME; details: human plasma
[5] = stability in plasma from a variety of species; type: in vitro ADME
[6] = rat single dose excretion/metabolite study (urine and feces); type: in vivo
Excerpt: as §1

[7] = rat 7-day repeat dose PO study (toxicokinetics)

With `CC1(C)SC(Nc2ccccc2O)=N[C@@H]1C(=O)O.Cl` [Compound 1, (R)-2-(2-hydroxyphenylamino)-5,5-dimethyl-4,5-dihydrothiazole-4-carboxylic acid mono-hydrochloride] the “removal of peroxynitrite in lactoperoxidase oxidation” value (lactoperoxidase) was “catalytically remove peroxynitrite”, the “hyperalgesia (mechanical thresholds)” value [1] was “not hyperalgesic” and the “hyperalgesia (mechanical thresholds)” value [2] was “protected from hyperalgesia”. For the same compound, the “Conc in rat plasma” value ([3]; 75 mg/kg, F, 2 h after last dose Day 7, individual animals, mono-hydrochloride, 75 mg/kg) was 2670 ng/mL and 3250 ng/mL and 3180 ng/mL, the concentration at 2 h ([3]; 75 mg/kg, F, 2 h after last dose Day 7, individual animals, mono-hydrochloride, 75 mg/kg, read-out: Conc in rat plasma) was 12.20 µM and 11.94 µM and the “Conc in rat plasma” value ([3]; 75 mg/kg, M, 2 h after last dose Day 7, individual animals, mono-hydrochloride, 75 mg/kg) was 2350 ng/mL and 2380 ng/mL and 4310 ng/mL. For the same compound, the concentration at 2 h ([3]; 75 mg/kg, M, 2 h after last dose Day 7, individual animals, mono-hydrochloride, 75 mg/kg, read-out: Conc in rat plasma) was 8.94 µM and 16.18 µM, the “Conc in rat plasma” value ([3]; 150 mg/kg, F, 2 h after last dose Day 7, individual animals, mono-hydrochloride, 150 mg/kg) was 5990 ng/mL and 2430 ng/mL and 5530 ng/mL and the concentration at 2 h ([3]; 150 mg/kg, F, 2 h after last dose Day 7, individual animals, mono-hydrochloride, 150 mg/kg, read-out: Conc in rat plasma) was 22.49 µM and 9.12 µM and 20.76 µM. For the same compound, the “Conc in rat plasma” value ([3]; 150 mg/kg, M, 2 h after last dose Day 7, individual animals, mono-hydrochloride, 150 mg/kg) was 4280 ng/mL and 6910 ng/mL and 6560 ng/mL, the concentration at 2 h ([3]; 150 mg/kg, M, 2 h after last dose Day 7, individual animals, mono-hydrochloride, 150 mg/kg, read-out: Conc in rat plasma) was 25.95 µM and 24.63 µM and the concentration at 2 h ([3]; female, Sprague-Dawley (SD), rat, plasma, iv, 75 mg/kg, 75 mg/kg, F, 2 h after last dose Day 7, individual animals, read-out: Conc in rat plasma) was 2670 ng/mL and 10 µM. For the same compound, the concentration at 2 h ([3]; female, Sprague-Dawley (SD), rat, plasma, iv, 75 mg/kg, 75 mg/kg, F, 2 h after last dose Day 7, read-out: Mean Conc in rat plasma) was 3030 ng/mL, the concentration at 2 h ([3]; female, Sprague-Dawley (SD), rat, plasma, iv, 150 mg/kg, 150 mg/kg, F, 2 h after last dose Day 7, read-out: Mean Conc in rat plasma) was 4650 ng/mL and the concentration at 2 h ([3]; male, Sprague-Dawley (SD), rat, plasma, iv, 75 mg/kg, 75 mg/kg, M, 2 h after last dose Day 7, individual animals, read-out: Conc in rat plasma) was 2350 ng/mL and 8.82 µM. The concentration at 2 h ([3]; male, Sprague-Dawley (SD), rat, plasma, iv, 75 mg/kg, 75 mg/kg, M, 2 h after last dose Day 7, read-out: Mean Conc in rat plasma) was 3010 ng/mL, the concentration at 2 h ([3]; male, Sprague-Dawley (SD), rat, plasma, iv, 150 mg/kg, 150 mg/kg, M, 2 h after last dose Day 7, individual animals, read-out: Conc in rat plasma) was 4280 ng/mL and 16.1 µM and the concentration at 2 h ([3]; male, Sprague-Dawley (SD), rat, plasma, iv, 150 mg/kg, 150 mg/kg, M, 2 h after last dose Day 7, read-out: Mean Conc in rat plasma) was 5920 ng/mL. For the same compound, the peak plasma concentration ([4]; rat, in vivo, po, 30 mg/kg) was 9 µg/mL, the “time to peak plasma concentration” value ([4]; rat, in vivo, po, 30 mg/kg) was ≤ 1 h and the “steady-state volume of distribution” value ([4]; rats) was 1.7 L/kg. For the same compound, the oral bioavailability ([4]; rats, 30 mg/kg oral dose) was 111%, the terminal half-life ([4]; rats, 30 mg/kg oral dose) was 1.6 h and the brain-to-plasma concentration ratio ([4]; rats, 1 h after IV administration) was 0.02. The stability in hepatocytes (stability in hepatocytes; dog hepatocytes, mono-hydrochloride) was “stable; also recorded: metabolic stability”, the stability in hepatocytes (stability in hepatocytes; human hepatocytes, mono-hydrochloride) was “stable; also recorded: metabolic stability” and the stability in hepatocytes (stability in hepatocytes; monkey hepatocytes) was “metabolic stability”. For the same compound, the stability in hepatocytes (stability in hepatocytes; rat hepatocytes, mono-hydrochloride) was “stable; also recorded: metabolic stability”, the stability in plasma (stability in plasma) was “stable” and the stability in plasma [5] was “stable”. The “administered compound recovered unchanged” value ([6]; rat single dose, urine and feces) was 5-15%, the “form excreted in urine and feces” value ([6]; rats) was “primarily as a sulfate conjugate” and the MTD ([7]; female rats, oral gavage, 7 days) was 2000 mg/kg. The Cmax ([7]; rat 7 Day PO, 2000 mg/kg, Seventh Daily Dose, mean) was 119000 ng/mL.

Reference: patent publication US20200289474A1, “METHODS OF TREATING PAIN WITH A THIAZOLINE ANTI-HYPERALGESIC” (priority 2019, published 2020)
